These results are taken from patent US20150335615A1, “CHOLESTEROL-LOWERING COMPOUNDS IN COMBINATION WITH LIPID METABOLISM-ALTERING COMPOUNDS OF NON-ABSORBABLE SUGARS, COMPOUNDS THAT CONVERT NH3 TO NH4+, OR HYDROGEN-GENERATING COMPOUNDS FOR THE TREATMENT OF HIGH CHOLESTEROL AND INFLAMMATION” (priority 2013, published 2015).

Experiment [1] deals with F. nucleatum. The settings on record: FIG. 4. On the procedure:
Incubate one of the periodontal bacteria for 4 hours with/without hydrogen and measure the hydrogen sulfide concentration.
Culture F. nucleatum (oral bacteria that produce H2S) overnight.
Incubate F. nucleatum in H2 or N2 condition for 4 hours.
Keep supernatant (3 ml) in 15 ml conical tube at 4° C.
Measure the H2S concentration in the conical tube (N=5, 1:10 dilution).

Experiment [2] in a line: H2 amount in mice after oral inulin. As to conditions: oral administration. The experiment is classed as in vivo.
Experiment [3] has as its system LDLR knockout mice. Kind of experiment: Liver histology, fatty liver development in LDLR knockout mice on high fat diet (Example 3). The experiment is classed as in vivo. The settings on record: LDLR-KO mice, high fat diet 12 weeks; lactulose 400 mg/day oral gavage; FIG. 7. The method, then: (§1) Low density lipoprotein receptor (LDLR) knockout mice and their wild type (C57BL6/J), were purchased from Jackson Laboratories (Bar Harbor, Me., USA). Male LDLR knockout mice (9-w old male) received control standard diet (Picolab, MO, USA; diet #5053) or high fat diet (Tekland Custom Diet, WI, USA; diet #TD88137). The LDLR mice received high fat diet were further randomly divided into four groups; G1) 20 mg/kg day atorvastatin group, G2) 400 mg/day lactulose group, G3) combination group, and G4) negative control group (no atorvastatin or lactulose). Atorvastatin was supplemented in the diet and lactulose was administered by oral gavage, twice a day. Wild type mice were maintained on the standard diet. All mice were fed with above noted respective diet for 12 weeks and sacrificed for post mortal analyses.
Blood was collected by heart puncture at left ventricular on the sacrificed mice, followed flushing the blood circulation with PBS, and the aorta and liver lobes were removed for laboratory evaluations.
Aortas and liver lobes were frozen in OCT compound (Sakura finetek, Japan).
Cryosections of aortas and liver lobes were stained with hematoxylin and eosin. Atherosclerosis legions were evaluated by Oil-Red 0 staining.

For experiment [4], the system named is Substance P and nerve growth factor (NGF). Briefly: Pain associated factors (Substance P, NGF) in mice with pregabalin. It is filed as in vivo. The settings on record: hydrogen generated by lactulose.
For experiment [5], the system named is LDLR knockout mice. Briefly: Serum lipoproteins (HDL, LDL, Ox-LDL) in LDLR knockout mice on high fat diet (Example 3). It is filed as in vivo. The method, then: as §1, with “analyses. Blood was collected by heart puncture at left ventricular on the sacrificed mice, followed flushing the blood circulation with PBS, and the aorta and liver lobes were removed for laboratory evaluations. Blood was drawn from heart in the absence of anti-coagulant agents, and the serum was prepared. High-density lipoprotein cholesterol and low-density lipoprotein (LDL) cholesterol were determined by a commercial colorimetric assay (Sigma-Aldrich, MO, USA). Oxidative-LDL was measured by ELISA (Uscn Life Science, TX, USA).” for “analyses.”

Experiment [6] deals with patients suffering from minimal hepatic encephalopathy (MHE). As to conditions: compared to placebo or no intervention; cited from earlier work.
For experiment [7], the system named is LDLR-KO mice. Kind of experiment: Serum lipids and Ox-LDL in LDLR-KO mice on western diet (Example 4). The experiment is classed as in vivo. As to conditions: LDLR-KO mice at 1.5 months and 3 months; FIGS. 10A and 10B. From the text: (§2) Animals: Homozygous LDL receptor knockout (LDLr−/−; C57BL/6) mice were purchased from the Jackson Laboratory (Bar Harbor, Me.). This genetically manipulated mouse strain is most commonly used for the pre-clinical study of high-fat diet induced hyperlipidemia and atherosclerosis. Nine weeks of age mice were separated into five groups (Groups #1-#5) and fed with normal diet (Group #1; Picolab, 5053) or high fat diet (Group #2-#5; HFD; Harlan Teklad, TD 88137) for 12 weeks. Atorvastatin (Lipitor) was added to the HFD (0.16% w/w) to Group #4 and Group #5. Lactulose (3 g/kg/day, in water solution) was orally administered every 12 hours to Group #3 and Group #5. The LDLR-KO mice were fed for three months with a normal or western diet, with or without lactulose, and with or without atorvastatin. Analysis of serum samples: Lipids, including LDL and HDL, as well as oxidized low density lipoprotein (Ox-LDL) present in serum was measured using an ELISA kit (Cell biolabs).

Experiment [8] has as its system LDLR-KO mice. Briefly: Weight increase of LDLR-KO mice on western diet (Example 4). It is filed as in vivo. As to conditions: western diet 12 weeks, atorvastatin 0.16% w/w in HFD, lactulose 3 g/kg/day oral, FIG. 9.
Description: as §2, with “atorvastatin.” for “atorvastatin. Analysis of serum samples: Lipids, including LDL and HDL, as well as oxidized low density lipoprotein (Ox-LDL) present in serum was measured using an ELISA kit (Cell biolabs).”

Experiment [9] relates to rats. As to conditions: cited from earlier work.

Entries after “also recorded” stand apart in the source; their conditions may differ.

Take hydrogen: the “production of dimethyl sulfide (DMS)” value in [1] (F. nucleatum cultured with H2) was “elevated production”. The “Hydrogen sulfide (H2S) concentration” value in [1] (F. nucleatum incubated in H2 or N2 condition for 4 hours) is recorded as “tends to be reduced”.

With Inulin, the “amount of H2” value in experiment [2] was “elevates”.

As to `OC[C@H]1O[C@@H](O[C@@H]2[C@@H](CO)OC(O)(CO)[C@H]2O)[C@H](O)[C@@H](O)[C@H]1O` (mixture of isomers) [lactulose], in experiment [3], the fatty liver development entry is recorded as “remarkable preventative effects”. In addition, the “pregabalin-mediated suppression of pain associated factors (Substance P and nerve growth factor (NGF))” value in experiment [4] was “additive effect”. Further, the “amount of HDL (good cholesterol)” value in [5] (LDLR-KO mice, high fat diet 12 weeks, atorvastatin 20 mg/kg day in diet, lactulose 400 mg/day oral gavage, FIG. 8A) was “didn't change”. In [5] (LDLR-KO mice, high fat diet 12 weeks, atorvastatin 20 mg/kg day in diet, lactulose 400 mg/day oral gavage, FIG. 8B), the “LDL (bad cholesterol) levels” value is listed as “no effects; also recorded: did not change”. Moreover, in experiment [5] (lactulose by itself, previously found), the “blood Ox-LDL caused by a fat diet” value is reported as “can suppress”. In experiment [6], the blood ammonia levels entry was “reduced”, the “health-related quality of life” value is recorded as “improved”, the “progression to overt hepatic encephalopathy” value is “prevented” and the “risk of no improvement in neuropsychological tests” value was “reduced”. In experiment [7], the “amount of Ox-LDL in serum” value is “able to suppress”. The weight increase result in experiment [8] is “moderate weight increase; also recorded: suppress weight gain”. Moreover, in experiment [9], the “incidence of MHE” value is listed as “decreased”, the “latency of BAEP” value is “normalized”, the level of hyper-endotoxemia result was “significantly lowered” and the level of hyperammonemia result is recorded as “significantly lowered”.
